Experimental data from the NIST ThermoML archive (doi:10.1016/j.fluid.2015.09.035).
Numbers after ± are expanded uncertainties.

Experiment: excess molar enthalpy (molar enthalpy of mixing); xn = mol fraction of the nth substance listed
Conditions: Liquid, Flow calorimetry

Cc1ccccc1 [toluene] + CCCC(C)O
x2 = 0
Conditions	excess molar enthalpy [kcal/mol]
298.15 K	0 ± 0.000239
313.15 K	0 ± 0.000239

CCCC(C)O (centres undefined) [pentan-2-ol] + Cc1ccccc1
excess molar enthalpy [kcal/mol]
Conditions	298.15 K	313.15 K
x1 = 0.0508	0.149 ± 0.00198	0.154 ± 0.00206
x1 = 0.0998	0.226 ± 0.00287	–
x1 = 0.0999	–	0.245 ± 0.00311
x1 = 0.151	0.276 ± 0.00359	0.307 ± 0.00382
x1 = 0.2002	0.31 ± 0.00382	–
x1 = 0.2003	–	0.346 ± 0.0043
x1 = 0.2496	0.335 ± 0.0043	0.375 ± 0.00478
x1 = 0.3009	0.354 ± 0.00454	–
x1 = 0.301	–	0.397 ± 0.00502
x1 = 0.3506	0.367 ± 0.00454	0.408 ± 0.00502
x1 = 0.4003	0.373 ± 0.00478	0.414 ± 0.00526
x1 = 0.4501	0.373 ± 0.00478	–
x1 = 0.4502	–	0.414 ± 0.00526
x1 = 0.5001	0.369 ± 0.00454	0.407 ± 0.00502
x1 = 0.5501	0.359 ± 0.00454	–
x1 = 0.5502	–	0.394 ± 0.00502
x1 = 0.6003	0.344 ± 0.0043	0.377 ± 0.00478
x1 = 0.6505	–	0.353 ± 0.0043
x1 = 0.6506	0.32 ± 0.00406	–
x1 = 0.701	0.293 ± 0.00359	0.32 ± 0.00406
x1 = 0.7495	0.259 ± 0.00335	0.282 ± 0.00359
x1 = 0.8002	0.22 ± 0.00287	0.239 ± 0.00311
x1 = 0.8509	0.173 ± 0.00222	–
x1 = 0.851	–	0.187 ± 0.00239
x1 = 0.8996	0.12 ± 0.00158	–
x1 = 0.8998	–	0.132 ± 0.00172
x1 = 0.9508	0.0597 ± 0.000884	–
x1 = 0.9509	–	0.0661 ± 0.000956
x1 = 1	0 ± 0.000239	0 ± 0.000239

CCCC(C)O (centres undefined) [pentan-2-ol] + C1CCCCC1
excess molar enthalpy [kcal/mol]
Conditions	298.15 K	313.15 K
x1 = 0.0496	0.105 ± 0.00143	0.133 ± 0.00177
x1 = 0.1013	0.144 ± 0.00186	0.181 ± 0.00232
x1 = 0.151	0.169 ± 0.00217	0.208 ± 0.00263
x1 = 0.2008	0.189 ± 0.00239	0.229 ± 0.00287
x1 = 0.2506	0.205 ± 0.00263	0.246 ± 0.00311
x1 = 0.3003	–	0.258 ± 0.00335
x1 = 0.3005	0.218 ± 0.00287	–
x1 = 0.3502	–	0.265 ± 0.00335
x1 = 0.3503	0.228 ± 0.00287	–
x1 = 0.4001	0.232 ± 0.00287	–
x1 = 0.4002	–	0.265 ± 0.00335
x1 = 0.4499	0.234 ± 0.00287	–
x1 = 0.4501	–	0.265 ± 0.00335
x1 = 0.5001	–	0.259 ± 0.00335
x1 = 0.5002	0.228 ± 0.00287	–
x1 = 0.5499	0.22 ± 0.00287	–
x1 = 0.5501	–	0.251 ± 0.00311
x1 = 0.6001	–	0.236 ± 0.00311
x1 = 0.6002	0.207 ± 0.00263	–
x1 = 0.6501	0.187 ± 0.00239	–
x1 = 0.6502	–	0.219 ± 0.00287
x1 = 0.7002	0.166 ± 0.00213	–
x1 = 0.7003	–	0.198 ± 0.00263
x1 = 0.7504	0.146 ± 0.00189	–
x1 = 0.7505	–	0.171 ± 0.0022
x1 = 0.8007	0.121 ± 0.0016	0.144 ± 0.00186
x1 = 0.8509	0.0932 ± 0.00124	–
x1 = 0.851	–	0.11 ± 0.00146
x1 = 0.9013	0.0625 ± 0.000884	0.0756 ± 0.00105
x1 = 0.9496	0.0302 ± 0.000502	0.0394 ± 0.000621
x1 = 1	0 ± 0.000239	0 ± 0.000239

C1CCCCC1 [cyclohexane] + CCCC(C)O
x2 = 0
Conditions	excess molar enthalpy [kcal/mol]
298.15 K	0 ± 0.000239
313.15 K	0 ± 0.000239
